Consider nine compounds from ChEMBL document CHEMBL1143540, “Synthesis and in vivo antihyperglycemic activity of 5-(1H-pyrazol-3-yl)methyl-1H-tetrazoles” (2005).

Structures are written as SMILES.

The assay deals with Rattus norvegicus. The assay is described as follows: Percent fall in blood glucose level in male Sprague-Dawley rats when at 100 mg/kg dose was calculated by AUC method. It is filed as functional.
As to `c1csc(-c2cc(Cc3nnn[nH]3)n[nH]2)c1`, the Activity was 21.4%.

Take `c1ccc2oc(-c3cc(Cc4nnn[nH]4)n[nH]3)cc2c1`: the Activity is reported as 6.2%.

On to `c1ccc(-c2cc(Cc3nnn[nH]3)n[nH]2)cc1`, for which the Activity was 10.6%.

For the compound `CN(C)C(=N)NC(=N)N` [METFORMIN], the Activity is 12.9%.

For `CN(CCOc1ccc(-c2cc(Cc3nnn[nH]3)[nH]n2)cc1)Cc1ccccc1`, the Activity was 18%.

As for `Brc1ccc(-c2cc(Cc3nnn[nH]3)[nH]n2)cc1`, the Activity is 18%.

Take `CSCCOc1ccc(-c2cc(Cc3nnn[nH]3)[nH]n2)cc1`: the Activity is 24.6%.

For the compound `CSc1ccc(-c2cc(Cc3nnn[nH]3)[nH]n2)cc1`, the Activity is listed as 6.06%.

In the case of `Clc1ccc(-c2cc(Cc3nnn[nH]3)[nH]n2)cc1`, the Activity is on record as 10.8%.
